The results in this text go back to article PMC4999093, “Novel NAD^+-Farnesal Dehydrogenase from Polygonum minus Leaves. Purification and Characterization of Enzyme in Juvenile Hormone III Biosynthetic Pathway in Plant” (PLoS ONE, 2016).

For this assay, the system named is T1, NAD^+-farnesal dehydrogenase (P. minus farnesal dehydrogenase).
T1 construct: native enzyme purified from leaves, untagged
Nature of the assay: NADH formation at […] nm, Lineweaver-Burk. In kind it is biochemical, Persicaria minor. The following applies: 100 mM glycine-NaOH pH 9.5, 35°C.

Usually Km stands for the substrate concentration at which the rate is half of its maximum. `CC(C)=CCCC(C)=CC=O` (mixture of isomers) [Citral, 3,7-dimethyl-2,6-octadienal]: the Km (1.0 mM NAD+, substrate is a mixture of geranial and neral) is 690 µM.
As for `CC(C)=CCC/C(C)=C/CC/C(C)=C/C=O` (mixture of isomers) [Farnesal, 3,7,11-trimethyl-2,6,10-dodecatrienal], the Km (1.0 mM NAD+, substrate is a mixture of isomers) is 130 µM.
As to `C/C(C=O)=C\c1ccccc1` [α-methylcinnamaldehyde], the Km (1.0 mM NAD+) worked out at 1280 µM.
Consider `O=C/C=C/c1ccccc1` [trans-cinnamaldehyde], for which the Km (1.0 mM NAD+) turned out to be 860 µM.
Consider `NC(=O)c1ccc[n+]([C@@H]2O[C@H](COP(=O)(O)OP(=O)(O)OC[C@H]3O[C@@H](n4cnc5c(N)ncnc54)[C@H](O)[C@@H]3O)[C@@H](O)[C@H]2O)c1` [NAD^+], for which, under “co-substrate farnesal”, the Km was determined as 310 µM.
